Entries after “also recorded” stand apart in the source; their conditions may differ.
Experiments:
[1] = system: ADA-deficient (ADA−/−) mice; test: General health and lung histology (H&E) in the ADA-deficient mouse model of adenosine-dependent pulmonary injury; format: in vivo; conditions: 1 mg/kg ip twice daily for 17 days
Text: The model system being used is the adenosine deaminase (ADA)-deficient mouse model of adenosine-dependent pulmonary injury. In this model, elevations in adenosine are associated with increased pulmonary inflammation and airway remodeling. Many of the features seen in these mice resemble those observed in patients with various forms of chronic lung disease including severe asthma, COPD and pulmonary fibrosis. The approach is to treat these mice with the A2B AR antagonist 3-ethyl-1-propyl-8-{1-[(3-trifluoromethylphenyl)methyl]pyrazol -4-yl}-1,3,7-trihydropurine-2,6-dione as a means to probe A2BAR contributions to pulmonary inflammation and injury in ADA-deficient mice, which should provide insight into the efficacy of this drug for the treatment of chronic lung diseases.
(§1) Mice treated by intraperitoneal (ip) injection twice daily with 1 mg/kg 3-ethyl-1-propyl -8-{1-[(3-trifluoromethylphenyl)methyl]pyrazol-4-yl}1,3,7-trihydropurine-2,6-dione. The specific protocol is as follows: ADA-deficient (ADA−/−) or ADA containing (ADA+) mice were identified at birth by screening of ADA enzymatic activity in the blood. ADA−/− mice were maintained on ADA enzyme therapy from postnatal day 2 until postnatal day 21. At this stage, treatments with 3-ethyl-1-propyl-8-{1-[(3-trifluoromethylphenyl)methyl] pyrazol -4-yl}-1,3,7-trihydropurine-2,6-dione or vehicle controls (corn oil/ethanol/DMSO) were initiated. Treatments consisted of an ip injection in the morning (8-9 AM) and in the evening (5-6 pm). Treatments were given daily for 17 days, and the experiment was terminated on postnatal day 38. Treatment groups included ADA−/− or ADA+mice receiving 3-ethyl-1-propyl-8-{1-[(3-trifluoromethylphenyl)methyl]pyrazol-4-yl}-1,3,7-trihydropurine-2,6-dione, vehicle, or no treatment. All mice were littermates and were therefore strain matched. Both males and females were included in these experiments. At the termination of the experiment, serum was collected for pharmacokinetics (PK) analysis of 3-ethyl-1-propyl -8-{1-[(3-trifluoromethylphenyl)methyl]pyrazol-4-yl}-1,3,7-trihydropurine -2,6-dione levels and various pulmonary endpoints were examined.
ADA-deficient mice were generated and genotyped as described (Blackburn et al. (1998) J Biol Chem 273:5093-5100 and Young et al. (2004) J. Immunol. 173:1380-1389. Mice homozygous for the null Ada allele were designated ADA-deficient (ADA^−/−), while mice heterozygous for the null Ada allele were designated as ADA control mice (ADA^+). All mice were on a mixed 129sv/C57BL/6J background and all phenotypic comparisons were performed amongst littermates. Animal care was in accordance with institutional and NIH guidelines. Mice were housed in ventilated cages equipped with microisolator lids and maintained under strict containment protocols. No evidence of bacterial, parasitic, or fungal infection was found, and serologies on cage littermates were negative for 12 of the most common murine viruses.
(§2) Mice were anesthetized with avertin, and lungs were lavaged four times with 0.3 ml PBS, and 0.95-1 ml of pooled lavage fluid was recovered. Total cell counts were determined using a hemocytometer, and aliquots were cytospun onto microscope slides and stained with Diff-Quick (Dade Nehring) for cellular differentials. Lungs were then infused with 4% paraformaldehyde in PBS at 25 cm of pressure and then fixed overnight at 4° C. Fixed lung samples were rinsed in PBS, dehydrated, and embedded in paraffin. Sections (5 μm) were collected on microscope slides and stained with hematoxylin and eosin (H&E; Shandon-Lipshaw) or Masson's trichrome (EM Science), according to manufacturer's instructions.

[2] = system: ADA-deficient (ADA−/−) mice; test: Bronchiolalveolar lavage (BAL) cell counts and cellular differentials in ADA-deficient mice; format: in vivo, mouse; conditions: 1 mg/kg ip twice daily for 17 days
Description: as §1, §2

[3] = system: ADA-deficient (ADA−/−) mice; test: Whole lung transcript levels by quantitative real-time RT-PCR in ADA-deficient mice; format: in vivo, mouse; conditions: 1 mg/kg ip twice daily for 17 days, vs vehicle-treated ADA−/− mice
Description: as §1
Mice were anesthetized and the lungs were rapidly removed and frozen in liquid nitrogen. RNA was isolated from frozen lung tissue using TRIzol Reagent (Life Technologies Inc., Grand Island, N.Y., USA). RNA samples were then DNase treated and subjected to quantitative real-time RT-PCR. The primers, probes and procedures for real-time RT-PCR were described previously in Sun et al. (2005) J Clin Invest 115:35-43. Reactions were carried out on a Smart Cycler rapid thermal cycler system (Cepheid, Sunnyvale, Calif.). Specific transcript levels were determined using Smart Cycler analysis software through comparison to a standard curve generated from the PCR amplification of template dilutions.

[4] = system: ADA-deficient (ADA−/−) mice; test: Collagen deposition (Masson's trichrome) and soluble collagen (Sircol assay) in ADA-deficient mice; format: in vivo, mouse; conditions: 1 mg/kg ip twice daily for 17 days
Description: as §1
as §2, with “instructions. […]” for “instructions.”

[5] = system: ADA-deficient (ADA−/−) mice; test: α-smooth muscle actin immunostaining of lung myofibroblasts in ADA-deficient mice; format: in vivo, mouse; conditions: 1 mg/kg ip twice daily for 17 days
Description: as §1, with “examined. […]” for “examined.”

[6] = system: ADA-deficient (ADA−/−) mice; test: Alveolar airspace size (histology, mean chord length) in ADA-deficient mice; format: in vivo, mouse; conditions: 1 mg/kg ip twice daily for 17 days
Description: Mice treated by intraperitoneal (ip) injection twice daily with 1 mg/kg 3-ethyl-1-propyl -8-{1-[(3-trifluoromethylphenyl)methyl]pyrazol-4-yl}1,3,7-trihydropurine-2,6-dione. The specific protocol is as follows: ADA-deficient (ADA−/−) or ADA containing (ADA+) mice were identified at birth by screening of ADA enzymatic activity in the blood. ADA−/− mice were maintained on ADA enzyme therapy from postnatal day 2 until postnatal day 21. At this stage, treatments with 3-ethyl-1-propyl-8-{1-[(3-trifluoromethylphenyl)methyl] pyrazol -4-yl}-1,3,7-trihydropurine-2,6-dione or vehicle controls (corn oil/ethanol/DMSO) were initiated. […]
Mice were anesthetized with avertin, and lungs were lavaged four times with 0.3 ml PBS, and 0.95-1 ml of pooled lavage fluid was recovered. Total cell counts were determined using a hemocytometer, and aliquots were cytospun onto microscope slides and stained with Diff-Quick (Dade Nehring) for cellular differentials. […]
The size of alveolar airways was determined in pressure infused lungs by measuring mean chord lengths on H&E-stained lung sections (Blackburn et al. (2000) J Exp Med 192:159-170). […] This line grid was subtracted from the lung images using Image-Pro® Plus (Media Cybernetics) image analysis software, and the resultant lines were measured and averaged to give the mean chord length of the alveolar airways. […]

[7] = ADA−/− mice, vs vehicle-treated ADA−/− mice
[8] = listed as adenosine A2B receptor antagonist, 1 mg/kg

`CCCn1c(=O)c2[nH]c(-c3cnn(Cc4cccc(C(F)(F)F)c4)c3)nc2n(CC)c1=O` [3-ethyl-1-propyl-8-(1-{[3-(trifluoromethyl)phenyl]methyl}pyrazol-4-yl)-1,3,7-trihydropurine-2,6-dione] was tested. Which “alveolar airway simplification (H&E histology)” value ([1]; ADA+ control mice) did it give?
The value was “not evident”.

And the “pulmonary inflammation (H&E histology)” value ([1]; ADA+ control mice)?
Its value is “not evident”.

What about the “pulmonary inflammation and airway destruction” value ([1]; ADA−/− mice) of the same compound?
Its value is “significant reduction”.

And the “alveolar airway simplification (H&E histology)” value [1, 7]?
Its value is “significant decrease”.

And the “pulmonary inflammation (H&E histology)” value [1, 7]?
Its value is “significant decrease”.

And the “outward signs of severe respiratory distress (rapid breathing and hunched posture)” value ([1]; ADA−/− mice, seen in vehicle-treated or untreated ADA−/− mice)?
The value was “not observed”.

And the airway inflammation [2]?
Its airway inflammation is “significant decrease”.

What about the “alveolar macrophage activation (BAL cells)” value [2] of the same compound?
The value was “reduction”.

And the “alveolar macrophages in BAL” value [2]?
Its value is “reduction”.

And the “eosinophils in BAL” value [2]?
The value was “reduction”.

And the “lymphocytes in BAL” value [2]?
Its value is “reduction”.

And the “neutrophils in BAL” value [2]?
Its value is “reduction”.

And the “number of total cells recovered from BAL” value ([2]; vs vehicle-treated ADA−/− mice)?
Its value is “significant reduction”.

And the “Eotaxin I level, whole lung RNA” value [3]?
The value was “significantly lower”.

What about the “IL-4 level, whole lung RNA” value [3] of the same compound?
Its value is “did not change”.

What about the “IL-5 level, whole lung RNA” value [3] of the same compound?
The value was “did not change”.

And the “IL-6 level, whole lung RNA” value [3]?
The value was “significantly lower”.

And the “MMP-9 expression, whole lung RNA” value [3]?
Its value is “diminished”.

What about the “MMP-12 expression, whole lung RNA” value [3] of the same compound?
The value was “diminished”.

What about the “RANTES level, whole lung RNA” value [3] of the same compound?
Its value is “did not change”.

And the “TARC level, whole lung RNA” value [3]?
Its value is “significantly lower”.

What about the “TIMP-1 expression, whole lung RNA” value [3] of the same compound?
The value was “diminished”.

What about the “TNFα level, whole lung RNA” value [3] of the same compound?
Its value is “did not change”.

And the “increase in collagen production: whole lung α1-procollagen transcript levels” value [3]?
The value was “largely prevented”.

What about the “monocyte chemoattractant proteins (MCPs) level, whole lung RNA” value [3] of the same compound?
Its value is “did not change”.

What about the “TGF-β1 expression (transcripts), whole lung” value [3, 8] of the same compound?
Its value is “lower levels; also recorded: decreased”.

And the “osteopontin (OPN) expression (transcripts), whole lung” value [3, 8]?
Its value is “lower levels; also recorded: decreased”.

And the “plasminogen activator inhibitor-1 (PAI-1) expression (transcripts), whole lung” value [3, 8]?
Its value is “lower levels; also recorded: decreased”.

What about the “collagen deposition in the lungs (Masson's trichrome)” value ([4]; ADA+ control mice) of the same compound?
Its value is “little to no”.

And the “collagen deposition in the airways (Masson's trichrome)” value ([4]; ADA−/− mice)?
Its value is “reduction”.

What about the “increase in collagen production: collagen protein levels in BAL fluid” value [4, 7] of the same compound?
The value was “largely prevented”.

What about the “α-sma positive cells in the distal airways (myofibroblast accumulation)” value [5] of the same compound?
The value was “Few to no”.

And the “distal airway enlargement (histology)” value [6]?
The value was “prevented”.

And the “distal airway size (mean cord length)” value [6]?
Its value is “agreed with the histological observations”.
